Consider eleven compounds from patent publication US4508720A, “Amino derivatives of pyridazine, and compositions thereof for the central nervous system” (Sanofi, priority 1981, dated 1985).

Where only a bound is given, the exact number is not on record here.

By ED50 is commonly meant the dose that gives a 50% effect, or the effect in half of the subjects.

Data set [1] deals with mice. The following applies: mouse, in vivo, ip. The protocol:
(§1) The products to be studied were administered by the intraperitoneal route at increasing doses to batches of 10 mice. The mortality provoked by the products studied were noted during the 24 hours following administration of the product.
During the same experiments, the convulsivant threshold dose of the product is also noted, i.e. the minimum dose for which a convulsivant activity begins to be shown.
(§2) Three products of the prior art are given in this Table by way of comparison: […]

Data set [2] is described as follows: Acute toxicity (mortality during 24 hours, i.p.). The following applies: mouse, in vivo, ip. How it is done:
as §1
(§3) From the results obtained, the LD 50, i.e. the dose provoking the death of 50% of the animals studied, is determined for each of the products studied.
as §2

Data set [3] deals with ptosis induced by reserpine. Kind of data set: Antagonism of the ptosis induced by reserpine. As to conditions: Mus musculus, ip, reserpine 2 mg/kg i.v. simultaneously, 1 hour. It counts as in vivo, female mice CDI (Charles River). The protocol:
This test, described by GOURET (Journal de Pharmacologie (Paris), 1973, 4 (1), 105-128), was made on the female mice CDI (Charles River), weighing 20±1 g. The reserpine causes a ptosis one hour after intravenous administration thereof; certain antidepressants oppose this ptosis. The following protocol was chosen: The substances to be studied were administered by the i.p. route. […] One hour after administration of reserpine, the number of animals not presenting ptosis is noted. This test was carried out on batches of 10 mice, the results are expressed in percentage of animals not presenting ptosis and are the average of at least two experiments. By way of comparison, the results obtained with the three products of the prior art, Minaprine, CM 30070 and CM 30071 have also been indicated.

Another data set deals with despair reaction. In words: Despair reaction (behavioral despair). Type of data set: in vivo, female mouse, CDI (Charles River). As to conditions: one hour before the test; for Behavioral Despair (change of immobility time): immobility between 2nd and 6th minute. How it is done:
This test was carried out in the female mouse, CDI (Charles River), weighing 18 to 23 g, according to the method described by Porsolt (Archives Internationales de Pharmacodynamie, 1977, 229, 327-336). The principle of this test is as follows: when a mouse is placed in a narrow recipient, filled with water, it struggles, then, after 2 to 4 mins., it becomes still and floats on its stomach, its back rounded, its rear paws drawn up under its body and it makes only a few movements necessary for maintaining its head out of the water. This reaction is called the despair reaction. Certain psychotherapeutic agents, particularly the antidepressants, extend the time during which the mouse struggles. The following protocol was chosen: The products to be studied were administered by the i.p. route one hour before the test. For the test, the animals are placed in a narrow recipient (10×10×10 cm), filled with water, up to a height of 6 cm, the temperature of the water being 24° C.±2° C. […] Each substance was studied on a batch of 10 mice. The results are the average of at least two experiments.

For data set [4] the following is noted: per os; cited from earlier work.
The conditions of data set [5]: in vivo; cited from earlier work.
Data set [6] relates to mice. In words: Acute toxicity (mortality during 24 hours, i.p.). The following applies: mouse, in vivo, ip, 1440 min. How it is done:
as §1, §3, §2

With `Cc1cc(-c2ccc(O)cc2)nnc1NCCN` [SR 95073, 3-(2-Amino Ethylamino)4-Methyl 6-(4-Hydroxy Phenyl)Pyridazine], the Convulsivant threshold dose in the data set with mice [1] is above 200 mg/kg. The LD50 at 24 h in data set [2] (mice, 24 hours) was above 200 mg/kg.

In turn, `NCCNc1cc(-c2ccccc2)cnn1` [SR 95086] gave a Convulsivant threshold dose with mice [1] above 200 mg/kg. The compound also displayed an LD50 at 24 h in data set [2] above 200 mg/kg.

As for `NCCNc1nnccc1-c1ccccc1` [SR 95002], the Convulsivant threshold dose in the data set with mice [1] was determined as 100 mg/kg. This compound had an LD50 at 24 h in data set [2] of around 150 mg/kg.

As to `CNCCNc1nnc(-c2ccccc2)cc1C` [SR 95029, 2-(2-Methylamino Ethylamino)4-Methyl 6-Phenyl Pyridazine], the Convulsivant threshold dose with mice [1] was determined as 200 mg/kg. In data set [2] (mice, 24 hours), this compound registered an LD50 at 24 h above 200 mg/kg.

Take `CCN(CC)CCNc1nnc(-c2ccccc2)cc1C` [CM 30070, reference compound]: in the data set on mice [1], the Convulsivant threshold dose is 60 mg/kg. The compound further registered a 50% effective dose (ED50) in data set [3] of around 50 mg/kg. Besides, the “Behavioral Despair, result in words” value in the data set on despair reaction (25 mg/kg i.p.) was “inactive”. Besides, the LD50 at 24 h in data set [2] came out at 80 mg/kg.

In the data set on mice [1], `Cc1cc(-c2ccccc2)nnc1NCCCN` [CM 30486, 3-(3-aminopropylamino)4-methyl 6-phenyl pyridazine] displayed a Convulsivant threshold dose above 200 mg/kg. The same compound had an ED50 in data set [3] of around 10 mg/kg. Further, the “Behavioral Despair (change of immobility time)” value in the data set on despair reaction (10 mg/kg i.p.) is recorded as -20%. Further, in data set [2] (mice, 24 hours), the LD50 at 24 h was above 200 mg/kg.

Consider `Cc1cc(-c2ccccc2)nnc1NCCN` [CM 30099, 3-(2-Amino Ethylamino)4-Methyl 6-Phenyl Pyridazine], for which the Convulsivant threshold dose in the data set on mice [1] amounted to 200 mg/kg. Moreover, the ED50 in data set [3] came to 16 mg/kg. The “Behavioral Despair (change of immobility time)” value in the data set with despair reaction (10 mg/kg i.p.) is -50%. In data set [2] (mice, 24 hours), this compound gave an LD50 at 24 h above 200 mg/kg.

Compound `Cc1cc(-c2ccccc2)nnc1NCCCCN` [CM 30487, 3-(4-aminobutylamino)4-methyl 6-phenyl pyridazine] showed a Convulsivant threshold dose with mice [1] above 200 mg/kg. The same compound registered an LD50 at 24 h in data set [2] (mice, 24 hours) above 200 mg/kg.

For the compound `NCCNc1ccc(-c2ccccc2)nn1` [SR 95085], the Convulsivant threshold dose with mice [1] is listed as above 200 mg/kg. In data set [2], this compound yielded an LD50 at 24 h above 200 mg/kg.

Take `Cc1cc(-c2ccccc2)nnc1NCCN1CCOCC1` [Minaprine]: in data set [4], the “dose at which the product proves convulsivant” value was “higher than 100 mg/kg”. The compound further showed a Convulsivant threshold dose in the data set with mice [1] of 35 mg/kg. The same compound showed an ED50 in data set [3] of 5 mg/kg. For the same compound, in the data set on despair reaction (10 mg/kg i.p.), the “Behavioral Despair (change of immobility time)” value is -35%. Moreover, the “type of psychotherapeutic action” value in data set [5] was “"disinhibitory" activity”.

As for `Cc1cc(-c2ccccc2)nnc1NCCN(C)C` [CM 30071, reference compound], the Convulsivant threshold dose in the data set on mice [1] is listed as 100 mg/kg. Also, in data set [3], the ED50 was around 50 mg/kg. The “Behavioral Despair, result in words” value in the data set with despair reaction (10 mg/kg i.p.) is “inactive”. Besides, in the data set on mice [6], the LD50 is reported as 118 (101-139) mg/kg.
